Assay results as given in patent publication US20120184590A1, “FORMULATIONS OF INDOLE-3-CARBINOL DERIVED ANTITUMOR AGENTS WITH INCREASED ORAL BIOAVAILABILITY” (UNIVERSITY OF KANSAS, priority 2009, published 2012).
“Also recorded” adds a separate entry of the source. Marks after values point to notes of the source that are not given here.

Assay: Clinical observations and clinical pathology in dogs
Assay type: in vivo, beagle dogs
Conditions: for ALT / AST / LDH: day 2 following a single dose
Protocol: For both species, each animal was part of each experimental group, with a 7-day interval between treatments to allow for washout of the dosing formulation and its effects. Dosing formulations of SR13668 were administered by oral gavage (intragastric) or intravenous (i.v.) injection as a single dose or once daily for seven consecutive days. Oral to doses were administered at a dosing volume of 5 mL/kg of body weight, while intravenous doses were administered at a dosing volume of 0.5 mL/kg of body weight. Dogs were dosed with 93.6 mg/m^2 SR13668 intravenously in DMSO:PEG300 15:85 (v/v) or orally in Solutol® vehicle (two groups, fed and after an overnight fast). Monkeys were dosed with 84.2 mg/m^2 SR13668 intravenously in DMSO:PEG300 15:85 (v/v) or orally (336.7 mg/m^2 SR13668 for the oral high dose group) in PEG400:Labrasol® 1:1 (v/v) or Solutol® vehicles. Vehicle control groups were used to assess the tolerability of the vehicle and for clinical pathology evaluations.
At the end of each dosing period, the animals were examined for detailed clinical signs and symptoms (i.e., alterations of teeth, nose, eyes, perineum, pelage and body orifices; changes in appearance or behavior) and/or presence of any tissue masses. Body weights were recorded prior to treatment and daily during each testing interval. Quantitative (grams/day) food consumption data were recorded for dogs on a daily basis during each testing interval. Qualitative food consumption observations were recorded for monkeys on a daily basis during each testing interval. Blood samples for clinical pathology (clinical chemistry, hematology, and coagulation) parameter evaluation were collected from dogs and monkeys prior to dosing and on Days 2 and 8 post-dose, as well as from monkeys on Days 15 and 30 post-dose.

[1] = 93.6 mg/m^2 (4.68 mg/kg) iv, DMSO:PEG300 15:85 v/v, fed
[2] = 93.6 mg/m^2 (4.68 mg/kg) oral gavage, Solutol, fasted
[3] = 93.6 mg/m^2 (4.68 mg/kg) oral gavage, Solutol, fed

## CCOC(=O)c1ccc2[nH]c3c(OC)c4[nH]c5ccc(C(=O)OCC)cc5c4cc3c2c1 [SR13668, 2,10-dicarbethoxy-6-methoxy-5,7-dihydro-indolo-(2,3-b)carbazole]
  adverse treatment-related clinical observations: vomiting in fasted dogs
  effects on body weights, body weight gains or food consumption: No significant treatment-related effects on body weights, body weight gains or food consumption
  effects on clinical pathology (clinical chemistry, hematology, coagulation): did not cause untoward hematology, clinical chemistry, or coagulation effects; also recorded: No treatment-related effects on any clinical pathology variables
  mortality or morbidity: no mortalities or morbidity
[1]
  ALT: 41.8 ± 5.4 IU/L
  AST: 30.8 ± 5.2 IU/L
  LDH: 54.8 ± 23 ^c IU/L
[2]
  ALT: 44.8 ± 10 IU/L
  AST: 30.8 ± 7.2 IU/L
  LDH: 56.3 ± 9.4 IU/L
[3]
  ALT: 39.5 ± 4.7 IU/L
  AST: 29.3 ± 3.6 IU/L
  LDH: 30.3 ± 6.2 ^c IU/L
